Test results from PubChem BioAssay (NCI).
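In this assay, cells in 96-well plates receive the compound at five concentrations for 48 hours. Endpoints are linearly interpolated between the surrounding concentrations. GI50 marks 50% less growth. TGI is the concentration that stops growth completely.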

How the values were obtained:
Test in all cases: DTP human tumour cell line panel, 48 h; in the data active = GI50 below about 0.43 µM; inactive = the rest
COLO 205 colon = tested on: COLO 205 colon
OVCAR-8 ovarian = tested on: OVCAR-8 ovarian
SNB-19 CNS = tested on: SNB-19 CNS
SF-539 CNS = tested on: SF-539 CNS
A549 NSCLC = tested on: A549 NSCLC
MDA-MB-435 = tested on: MDA-MB-435
SF-268 CNS = tested on: SF-268 CNS
NCI-H522 lung = tested on: NCI-H522 lung
U251 CNS = tested on: U251 CNS
MALME-3M melanoma = tested on: MALME-3M melanoma
K-562 leukemia = tested on: K-562 leukemia
HCT-15 colon = tested on: HCT-15 colon
SR leukemia = tested on: SR leukemia
SF-295 CNS = tested on: SF-295 CNS
SK-MEL-28 melanoma = tested on: SK-MEL-28 melanoma
LOX IMVI melanoma = tested on: LOX IMVI melanoma
SN12C renal = tested on: SN12C renal
CAKI-1 renal = tested on: CAKI-1 renal
DU-145 prostate = tested on: DU-145 prostate
HT29 colon = tested on: HT29 colon
SK-MEL-5 melanoma = tested on: SK-MEL-5 melanoma
HS 578T breast = tested on: HS 578T breast
UACC-257 melanoma = tested on: UACC-257 melanoma
TK-10 renal = tested on: TK-10 renal
ACHN renal = tested on: ACHN renal
HL-60(TB) leukemia = tested on: HL-60(TB) leukemia
OVCAR-4 ovarian = tested on: OVCAR-4 ovarian
HOP-92 NSCLC = tested on: HOP-92 NSCLC
UACC-62 melanoma = tested on: UACC-62 melanoma
NCI-H226 lung = tested on: NCI-H226 lung
SK-OV-3 ovarian = tested on: SK-OV-3 ovarian
HOP-62 NSCLC = tested on: HOP-62 NSCLC
KM12 colon = tested on: KM12 colon
EKVX NSCLC = tested on: EKVX NSCLC
T-47D breast = tested on: T-47D breast
IGROV1 ovarian = tested on: IGROV1 ovarian
M14 melanoma = tested on: M14 melanoma
MCF7 breast = tested on: MCF7 breast
A498 renal = tested on: A498 renal
OVCAR-3 ovarian = tested on: OVCAR-3 ovarian
HCC-2998 colon = tested on: HCC-2998 colon
HCT-116 colon = tested on: HCT-116 colon
MOLT-4 leukemia = tested on: MOLT-4 leukemia
786-0 renal = tested on: 786-0 renal
RPMI-8226 leukemia = tested on: RPMI-8226 leukemia
CCRF-CEM leukemia = tested on: CCRF-CEM leukemia
NCI-H23 lung = tested on: NCI-H23 lung
PC-3 prostate = tested on: PC-3 prostate
NCI-H460 lung = tested on: NCI-H460 lung
NCI/ADR-RES ovarian = tested on: NCI/ADR-RES ovarian
MDA-MB-468 breast = tested on: MDA-MB-468 breast
RXF 393 renal = tested on: RXF 393 renal
OVCAR-5 ovarian = tested on: OVCAR-5 ovarian
SW-620 colon = tested on: SW-620 colon
BT-549 breast = tested on: BT-549 breast

COc1ccc(C(=O)Nc2ccc(-c3ccc4c(c3)NC(=O)/C4=C\c3ccc[nH]3)cc2)cc1
41.2 µM: TGI (T-47D breast)
18.9 µM: TGI (U251 CNS)
1.71 µM: TGI (MDA-MB-468 breast)
inactive: GI50 (COLO 205 colon) 3.36 µM | GI50 (OVCAR-8 ovarian) 2.95 µM | GI50 (SNB-19 CNS) 30.9 µM | GI50 (SF-539 CNS) > 100 µM | GI50 (A549 NSCLC) 15.2 µM | GI50 (MDA-MB-435) > 100 µM | GI50 (SF-268 CNS) 28.7 µM | GI50 (NCI-H522 lung) 17 µM | GI50 (U251 CNS) 5.29 µM | GI50 (MALME-3M melanoma) 13.4 µM | GI50 (K-562 leukemia) 25.2 µM | GI50 (HCT-15 colon) 23 µM | GI50 (SR leukemia) 13.4 µM | GI50 (SF-295 CNS) 13.9 µM | GI50 (SK-MEL-28 melanoma) 79.6 µM | GI50 (LOX IMVI melanoma) 7.29 µM | GI50 (SN12C renal) 68.9 µM | GI50 (CAKI-1 renal) > 100 µM | GI50 (DU-145 prostate) 8.3 µM | GI50 (HT29 colon) 4.23 µM | GI50 (SK-MEL-5 melanoma) > 100 µM | GI50 (HS 578T breast) 5.82 µM | GI50 (UACC-257 melanoma) 9.07 µM | GI50 (TK-10 renal) 19 µM | GI50 (ACHN renal) 48.2 µM | GI50 (HL-60(TB) leukemia) 32.4 µM | GI50 (OVCAR-4 ovarian) 3.55 µM | GI50 (HOP-92 NSCLC) 42.8 µM | GI50 (UACC-62 melanoma) 20.5 µM | GI50 (NCI-H226 lung) 4.08 µM | GI50 (SK-OV-3 ovarian) > 100 µM | GI50 (HOP-62 NSCLC) 3.76 µM | GI50 (KM12 colon) 53.7 µM | GI50 (EKVX NSCLC) 2.46 µM | GI50 (T-47D breast) 3.17 µM | GI50 (IGROV1 ovarian) 37.6 µM | GI50 (M14 melanoma) 7.15 µM | GI50 (A498 renal) > 100 µM | GI50 (OVCAR-3 ovarian) 47.1 µM | GI50 (HCC-2998 colon) 9.38 µM | GI50 (HCT-116 colon) 15.7 µM | GI50 (MOLT-4 leukemia) 19.4 µM | GI50 (786-0 renal) 21.8 µM | GI50 (RPMI-8226 leukemia) 38.4 µM | GI50 (CCRF-CEM leukemia) > 100 µM | GI50 (NCI-H23 lung) 12.4 µM | GI50 (PC-3 prostate) 27.7 µM | GI50 (NCI-H460 lung) 12.7 µM | GI50 (NCI/ADR-RES ovarian) 3.84 µM | GI50 (RXF 393 renal) 8.74 µM | GI50 (OVCAR-5 ovarian) 30.8 µM | GI50 (SW-620 colon) 8.39 µM | GI50 (BT-549 breast) 33.4 µM
62.4 µM: TGI (SF-295 CNS)
active: GI50 (MCF7 breast) 0.372 µM | GI50 (MDA-MB-468 breast) 0.243 µM
13.5 µM: TGI (HOP-62 NSCLC)
19.8 µM: TGI (HT29 colon)
10.3 µM: TGI (OVCAR-8 ovarian)
50.8 µM: TGI (RXF 393 renal)
49.2 µM: TGI (HS 578T breast)
23.2 µM: TGI (OVCAR-4 ovarian)
12.1 µM: TGI (COLO 205 colon)
16.3 µM: TGI (NCI/ADR-RES ovarian)
91.3 µM: TGI (NCI-H522 lung)
71.9 µM: TGI (786-0 renal)
> 100 µM: TGI (SNB-19 CNS) | TGI (SF-539 CNS) | TGI (A549 NSCLC) | TGI (MDA-MB-435) | TGI (SF-268 CNS) | TGI (MALME-3M melanoma) | TGI (K-562 leukemia) | TGI (HCT-15 colon) | TGI (SR leukemia) | TGI (SK-MEL-28 melanoma) | TGI (LOX IMVI melanoma) | TGI (SN12C renal) | TGI (CAKI-1 renal) | TGI (DU-145 prostate) | TGI (SK-MEL-5 melanoma) | TGI (UACC-257 melanoma) | TGI (TK-10 renal) | TGI (ACHN renal) | TGI (HL-60(TB) leukemia) | TGI (HOP-92 NSCLC) | TGI (UACC-62 melanoma) | TGI (NCI-H226 lung) | TGI (SK-OV-3 ovarian) | TGI (KM12 colon) | TGI (EKVX NSCLC) | TGI (IGROV1 ovarian) | TGI (M14 melanoma) | TGI (MCF7 breast) | TGI (A498 renal) | TGI (OVCAR-3 ovarian) | TGI (HCC-2998 colon) | TGI (HCT-116 colon) | TGI (MOLT-4 leukemia) | TGI (RPMI-8226 leukemia) | TGI (CCRF-CEM leukemia) | TGI (NCI-H23 lung) | TGI (PC-3 prostate) | TGI (NCI-H460 lung) | TGI (OVCAR-5 ovarian) | TGI (SW-620 colon) | TGI (BT-549 breast)
